# Like-named read-outs stand apart in the source and are kept apart here.
# Columns and labels:
# human recombinant HDAC1 = molecular target: T1, human recombinant HDAC1 (Homo sapiens, UniProt Q13547); assay: HDAC activity assay (fluorogenic HDAC assay kit), HDAC1; assay type: biochemical; conditions: for IC50: human recombinant HDAC1, 37 °C, 30 min
# T1 construct: purchased BPS Bioscience, CA
# Description: (§1) HDAC activity was measured using fluorogenic HDACs assay kit (BPS Bioscience, CA) according to the manufacturer's protocol. […] Fluorescence values were measured at an excitation of 350 nm and an emission of 440 nm using SpectraMax M2 microplate reader. IC50 values were calculated using Origin software. IC50 values were determined using nonlinear regression analysis.
# human recombinant HDAC2 = molecular target: T2, human recombinant HDAC2 (Homo sapiens, UniProt Q92769); assay: HDAC activity assay (fluorogenic HDAC assay kit), HDAC2; assay type: biochemical; conditions: for IC50: human recombinant HDAC2, 37 °C, 30 min
# T2 construct: purchased BPS Bioscience, CA
# Description: as §1
# human recombinant HDAC6 = molecular target: T3, human recombinant HDAC6 (Homo sapiens, UniProt Q9UBN7); assay: HDAC activity assay (fluorogenic HDAC assay kit), HDAC6; assay type: biochemical; conditions: for IC50: human recombinant HDAC6, 37 °C, 30 min; for Selectivity index HDAC6/1: ratio of IC50 HDAC1 to IC50 HDAC6; for Selectivity index HDAC6/2: ratio of IC50 HDAC2 to IC50 HDAC6;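 for all read-outs here: underlying HDAC activity read as fluorescence, excitation 350 nm and emission 440 nm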
# T3 construct: purchased BPS Bioscience, CA
# T3 sequence (Q9UBN7 1-1215): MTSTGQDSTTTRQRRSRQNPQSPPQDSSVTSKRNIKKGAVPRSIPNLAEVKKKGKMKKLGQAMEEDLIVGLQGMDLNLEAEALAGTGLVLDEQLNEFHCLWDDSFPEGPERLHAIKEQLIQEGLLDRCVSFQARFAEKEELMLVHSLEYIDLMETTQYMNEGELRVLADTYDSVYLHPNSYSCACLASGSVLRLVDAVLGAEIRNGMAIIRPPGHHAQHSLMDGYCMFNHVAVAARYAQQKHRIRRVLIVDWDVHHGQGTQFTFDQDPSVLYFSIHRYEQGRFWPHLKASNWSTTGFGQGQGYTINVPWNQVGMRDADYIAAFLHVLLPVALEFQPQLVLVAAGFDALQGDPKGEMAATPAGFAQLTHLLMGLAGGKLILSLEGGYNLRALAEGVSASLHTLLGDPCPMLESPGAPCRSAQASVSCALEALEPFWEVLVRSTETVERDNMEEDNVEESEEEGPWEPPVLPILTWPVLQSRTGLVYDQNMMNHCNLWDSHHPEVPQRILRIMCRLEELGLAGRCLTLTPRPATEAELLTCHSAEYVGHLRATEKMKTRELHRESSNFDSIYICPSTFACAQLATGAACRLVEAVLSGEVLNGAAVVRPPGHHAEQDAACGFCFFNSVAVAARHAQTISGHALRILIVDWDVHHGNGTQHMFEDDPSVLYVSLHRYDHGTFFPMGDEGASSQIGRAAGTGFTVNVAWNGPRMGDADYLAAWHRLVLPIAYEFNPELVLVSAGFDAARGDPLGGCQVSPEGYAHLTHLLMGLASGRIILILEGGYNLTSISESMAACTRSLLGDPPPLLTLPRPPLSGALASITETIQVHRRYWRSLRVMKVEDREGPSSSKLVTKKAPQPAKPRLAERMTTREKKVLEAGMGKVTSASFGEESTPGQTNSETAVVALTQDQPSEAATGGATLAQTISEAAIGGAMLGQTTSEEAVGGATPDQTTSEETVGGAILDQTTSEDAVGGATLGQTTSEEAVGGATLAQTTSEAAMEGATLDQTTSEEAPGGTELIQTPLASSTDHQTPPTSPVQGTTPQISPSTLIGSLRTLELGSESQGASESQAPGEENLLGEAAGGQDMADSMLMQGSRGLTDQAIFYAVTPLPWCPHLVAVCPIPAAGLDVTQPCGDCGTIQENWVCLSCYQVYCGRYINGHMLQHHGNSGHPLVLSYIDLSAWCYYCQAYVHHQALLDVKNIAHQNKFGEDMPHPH
# Description: as §1
# [1] = tested on: human lung adenocarcinoma cells A549; assay: Antiproliferative activity, CCK-8 assay, A549; assay type: cell-based; conditions: CCK-8, 72 hours, mean ± SD
# Description: (§2) Antitumor activities in vitro of synthetic compounds were measured using CCK-8 Assay Kit (BPS Bioscience, CA) according to the manufacturer's protocol. […] Control cells were treated with serum free medium. Then CCK-8 solution was added to each well to determine cell viability. The IC50 values were calculated according to the dose-dependent curves (Origin software). IC50 values were determined using nonlinear regression analysis.
# liver cancer cells HepG2 = assay: Antiproliferative activity, CCK-8 assay, HepG2; assay type: cell-based; conditions: Homo sapiens, CCK-8, 72 hours, mean ± SD
# Description: as §2
# [2] = tested on: breast cancer cells MCF-7; assay: Antiproliferative activity, CCK-8 assay, MCF-7; assay type: cell-based; conditions: Homo sapiens, MCF7; CCK-8, 72 hours; mean ± SD
# Description: as §2
# [3] = tested on: prostate cancer cells PC-3; assay: Antiproliferative activity, CCK-8 assay, PC-3; assay type: cell-based; conditions: Homo sapiens; CCK-8, 72 hours; mean ± SD
# Description: as §2
# [4] = tested on: human cervical carcinoma cells HeLa; assay: Antiproliferative activity, CCK-8 assay, HeLa; assay type: cell-based; conditions: read-out: IC50 HeLa
# Description: Antitumor activities in vitro of synthetic compounds were measured using CCK-8 Assay Kit (BPS Bioscience, CA) according to the manufacturer's protocol. Cells were plated into 96-well plates with appropriate test compounds for 72 hours. Control cells were treated with serum free medium. Then CCK-8 solution was added to each well to determine cell viability. The IC50 values were calculated according to the dose-dependent curves (Origin software). IC50 values were determined using nonlinear regression analysis.
# healthy MCF-10A cells = assay: Toxicity to healthy cells, CCK-8 assay, MCF-10A; assay type: cell-based; conditions: for IC50: Homo sapiens, MCF-10A, healthy cells, CCK-8, 72 hours, >100 = not determinable up to highest concentrations tested
# Description: as §2
# [5] = amide group of 9c replaced with ester group
# T1 sequence (Q13547 whole entry): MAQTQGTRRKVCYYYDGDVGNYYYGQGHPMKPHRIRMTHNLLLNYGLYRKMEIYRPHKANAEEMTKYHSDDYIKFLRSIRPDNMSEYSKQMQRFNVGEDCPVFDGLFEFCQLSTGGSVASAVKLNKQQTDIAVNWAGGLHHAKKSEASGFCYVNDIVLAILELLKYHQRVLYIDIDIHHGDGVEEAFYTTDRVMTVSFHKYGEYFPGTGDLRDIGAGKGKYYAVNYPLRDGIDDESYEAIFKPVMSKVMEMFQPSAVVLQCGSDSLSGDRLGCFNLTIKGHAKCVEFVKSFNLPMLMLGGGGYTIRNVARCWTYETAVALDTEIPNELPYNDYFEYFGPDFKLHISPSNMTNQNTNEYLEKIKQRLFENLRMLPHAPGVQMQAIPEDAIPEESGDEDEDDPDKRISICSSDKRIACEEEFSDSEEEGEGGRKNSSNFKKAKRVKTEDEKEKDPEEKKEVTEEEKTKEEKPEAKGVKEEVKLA
# T2 sequence (Q92769 whole entry): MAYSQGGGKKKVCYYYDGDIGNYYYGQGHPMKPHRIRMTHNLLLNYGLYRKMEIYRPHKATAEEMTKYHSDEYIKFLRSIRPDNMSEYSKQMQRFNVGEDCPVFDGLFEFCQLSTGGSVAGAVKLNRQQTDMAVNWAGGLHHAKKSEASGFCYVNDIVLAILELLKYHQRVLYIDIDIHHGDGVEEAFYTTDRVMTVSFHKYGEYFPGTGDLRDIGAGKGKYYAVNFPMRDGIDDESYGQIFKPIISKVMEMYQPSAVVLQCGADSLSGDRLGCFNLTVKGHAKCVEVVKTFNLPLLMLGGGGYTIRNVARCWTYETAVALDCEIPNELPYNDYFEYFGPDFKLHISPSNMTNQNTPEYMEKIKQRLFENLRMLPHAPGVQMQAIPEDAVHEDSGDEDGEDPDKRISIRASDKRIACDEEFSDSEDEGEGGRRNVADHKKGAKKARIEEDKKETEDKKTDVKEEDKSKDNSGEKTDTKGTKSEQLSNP
SMILES,IC50 (human recombinant HDAC1) [µM],IC50 (human recombinant HDAC2) [µM],IC50 (human recombinant HDAC6) [µM],Selectivity index HDAC6/1 (human recombinant HDAC6),Selectivity index HDAC6/2 (human recombinant HDAC6),IC50 [1] [µM],IC50 (liver cancer cells HepG2) [µM],IC50 [2] [µM],IC50 [3] [µM],"IC50 ([4]; CCK-8, 72 hours, mean ± SD) [µM]",IC50 (healthy MCF-10A cells) [µM],melting point [°C],fold reduced potency anti-HDAC1 relative to 9c (human recombinant HDAC1; [5]),fold reduced potency anti-HDAC2 relative to 9c (human recombinant HDAC2; [5]),fold reduced potency anti-HDAC6 relative to 9c (human recombinant HDAC6; [5]),IC50 ([4]; 72 h) [µM],toxicity to healthy MCF-10A cells (healthy MCF-10A cells; in words),"toxicity to healthy VERO cells (healthy MCF-10A cells; in words, conclusions)"
"C[C@H]1COc2c(N3CCN(C)CC3)c(F)cc3c(=O)c(C(=O)OCc4cn(CCCCCC(=O)O)nn4)cn1c23 [Compound 6a, (S)-6-(4-(((9-fluoro-3-methyl-10-(4-methylpiperazin-1-yl)-7-oxo-3,7-dihydro-2H-[1,4]oxazino[2,3,4-ij]quinoline-6-carbonyl)oxy)methyl)-1H-1,2,3-triazol-1-yl)hexanoic acid]",8.2 ± 1.08,10.4 ± 1.87,2.1 ± 0.68,3.9,4.9,14.2 ± 1.28,13.4 ± 1.36,10.3 ± 1.12,16.5 ± 1.63,12.3 ± 1.16,> 100,175 to 178,–,–,–,–,–,–
"C[C@H]1COc2c(N3CCN(C)CC3)c(F)cc3c(=O)c(C(=O)OCc4cn(CCCCCCC(=O)O)nn4)cn1c23 [Compound 6b, (S)-7-(4-(((9-fluoro-3-methyl-10-(4-methylpiperazin-1-yl)-7-oxo-3,7-dihydro-2H-[1,4]oxazino[2,3,4-ij]quinoline-6-carbonyl)oxy)methyl)-1H-1,2,3-triazol-1-yl)heptanoic acid]",5.7 ± 0.71,6.2 ± 0.92,1.4 ± 0.35,4.1,4.4,10.7 ± 1.08,10.5 ± 1.17,8.9 ± 0.54,12.9 ± 1.25,9.7 ± 0.83,> 100,183 to 185,–,–,–,–,–,–
"C[C@H]1COc2c(N3CCN(C)CC3)c(F)cc3c(=O)c(C(=O)OCc4cn(CCCCCCCC(=O)O)nn4)cn1c23 [Compound 6c, (S)-8-(4-(((9-fluoro-3-methyl-10-(4-methylpiperazin-1-yl)-7-oxo-3,7-dihydro-2H-[1,4]oxazino[2,3,4-ij]quinoline-6-carbonyl)oxy)methyl)-1H-1,2,3-triazol-1-yl)octanoic acid]",6.9 ± 0.83,7.9 ± 0.76,4.7 ± 0.51,1.5,1.7,13.6 ± 1.16,12.7 ± 1.09,10.5 ± 1.22,15.8 ± 1.43,14.6 ± 1.08,> 100,196 to 199,–,–,–,–,–,–
"C[C@H]1COc2c(N3CCN(C)CC3)c(F)cc3c(=O)c(C(=O)NCc4cn(CCCCCC(=O)O)nn4)cn1c23 [Compound 7a, (S)-6-(4-((9-fluoro-3-methyl-10-(4-methylpiperazin-1-yl)-7-oxo-3,7-dihydro-2H-[1,4]oxazino[2,3,4-ij]quinoline-6-carboxamido)methyl)-1H-1,2,3-triazol-1-yl)hexanoic acid]",4.6 ± 0.52,7.3 ± 0.93,1.9 ± 0.47,2.4,3.8,12.8 ± 1.33,14.8 ± 1.27,9.7 ± 1.04,15.8 ± 1.48,13.5 ± 1.31,> 100,179 to 182,–,–,–,–,–,–
"C[C@H]1COc2c(N3CCN(C)CC3)c(F)cc3c(=O)c(C(=O)OCc4cn(CCCCCC(=O)NO)nn4)cn1c23 [Compound 8a, (S)-(1-(6-(hydroxyamino)-6-oxohexyl)-1H-1,2,3-triazol-4-yl)methyl-9-fluoro-3-methyl-10-(4-methylpiperazin-1-yl)-7-oxo-3,7-dihydro-2H-[1,4]oxazino[2,3,4-ij]quinoline-6-carboxylate]",0.075 ± 0.031,0.134 ± 0.049,0.043 ± 0.053,1.7,3.1,8.9 ± 0.72,9.8 ± 0.87,3.5 ± 0.51,12.8 ± 1.42,7.7 ± 0.64,> 100,–,–,–,–,–,–,–
"C[C@H]1COc2c(N3CCN(C)CC3)c(F)cc3c(=O)c(C(=O)OCc4cn(CCCCCCCC(=O)NO)nn4)cn1c23 [Compound 8c, (S)-(1-(8-(hydroxyamino)-8-oxooctyl)-1H-1,2,3-triazol-4-yl)methyl-9-fluoro-3-methyl-10-(4-methylpiperazin-1-yl)-7-oxo-3,7-dihydro-2H-[1,4]oxazino[2,3,4-ij]quinoline-6-carboxylate]",0.104 ± 0.053,0.065 ± 0.016,0.052 ± 0.026,2.0,1.3,7.4 ± 0.44,5.7 ± 0.49,2.3 ± 0.27,10.4 ± 1.13,6.8 ± 0.56,> 100,–,at least 2 fold,at least 2 fold,at least 2 fold,–,–,–
"C[C@H]1COc2c(N3CCN(C)CC3)c(F)cc3c(=O)c(C(=O)NCc4cn(CCCCCCCC(=O)NO)nn4)cn1c23 [Compound 9c, (S)-9-Fluoro-N-((1-(8-(hydroxyamino)-8-oxooctyl)-1H-1,2,3-triazol-4-yl)methyl)-3-methyl-10-(4-methylpiperazin-1-yl)-7-oxo-3,7-dihydro-2H-[1,4]oxazino[2,3,4-ij]quinoline-6-carboxamide]",0.038 ± 0.014,0.076 ± 0.022,0.041 ± 0.025,0.9,1.9,4.2 ± 0.38,3.6 ± 0.55,1.1 ± 0.23,8.7 ± 0.62,3.5 ± 0.24,> 100,–,–,–,–,–,–,–
"O=C(CCCCCCC(=O)Nc1ccccc1)NO [SAHA, vorinostat, reference compound]",–,–,–,–,–,–,–,–,–,–,–,–,–,–,–,2.9 ± 0.18,considerable toxicity,some extent inherent toxicity

# Reference: article PMC9080233, “Synthesis and biological evaluation of novel quinolone derivatives dual targeting histone deacetylase and tubulin polymerization as antiproliferative agents” (RSC Advances, 2018)
